Results as given in PMC12491715 (Acta Pharmaceutica Sinica. B, 2025).

How the values were obtained:
[1] = test system: caspase-3 activity in SH-SY5Y cells; experiment: Caspase-3 activity in lysates of Aβ1–42-treated cells; format: cell-based, human; settings: 5 μmol/L compound, 5 μmol/L fibrillar Aβ1–42, 24 h
Protocol: Cell culture and treatments The human neuroblastoma SH-SY5Y cell line was purchased from American Type Culture Collection (Manassas, VA, USA). Cells were cultured in Advanced Dulbecco’s modified Eagle’s medium (Gibco, Thermo Fisher Scientific, Waltham, MA, USA) supplemented with 10% fetal bovine serum (FBS, Gibco), 2 mmol/L L-glutamine, 50 U/mL penicillin and 50 μg/mL streptomycin (Sigma, St. Louis, MO, USA) in a humidified atmosphere of 95% air and 5% CO2 at 37 °C, and grown to 80% confluence. Prior to cell treatment, complete medium was replaced with serum-reduced medium (i.e., with 2% FBS). Compounds were prepared as a stock solution of 50 mmol/L in DMSO.
Caspase-3 activity and Western blot analysis The activity of caspases-3 was determined in total cell lysates of the SH-SY5Y cells treated as described. […] Following cell treatment for 24 h, cell lysates were prepared, and the caspase-3 activity was assessed using the fluorescent peptide substrate N-acetyl-L-α-aspartyl-L-α-glutamyl-L-valyl-N-[2-oxo-4-(trifluoromethyl)-2H-1-benzopyran-7-yl]-L-α-asparagine (Ac-DEVD-AFC; Bachem). […] Immediately after the addition of the substrate, fluorescence was monitored continuously for 30 min at an excitation wavelength of 405 nm and an emission wavelength of 535 nm using a Tecan Safire[2] fluorescence microplate reader. […]

BALB/c mice = experiment: Acute in vivo toxicity
Text: All mice used were 9–15 weeks old wild-type BALB/c mice bred in the Laboratory of Animal Genomics at the Faculty of Veterinary Medicine, University of Ljubljana. For intravenous administration, 4 males and one female were additionally purchased from Envigo RMS Holding Corp. Mice were conventionally bred in open polycarbonate cages (Tecniplast, Buguggiate, Italy) and provided with wood chip bedding (Lignocel®, Rettenmaier and Sons, Germany). Mice were kept under standard conditions, i.e., a 12:12 dark–light cycle (LED, CCT 3000 K, ≤ 25 lux above the cage), at temperature 21–24 °C, and 50%–60% humidity. They were fed irradiated rodent diet with minimal levels of phytoestrogens (Teklad global 16% protein rodent diet®, BN 2916, Envigo, Udine, Italy) and had access to drinkable tap water ad libitum. The in vivo study was evaluated by the National Ethics Committee for Animal Experiments and approved by the Veterinary Administration of the Republic of Slovenia; license number document no. U34401-10/2021/8, U34401-10/2021/13, and U34401-10/2021/1.
According to the OECD guidelines for acute toxicity testing, compound 8 was initially tested at 10 mg/kg dosage (10-fold the intended therapeutic dose (1 mg/kg)) in 3 female mice and repeated on 3 additional animals. […] After this fasting period, the animals were weighed and compound 8 was administered by oral gavage at 200 μL/20 g body weight using flexible plastic feeding tubes (20G × 30 mm, Instech Laboratories, USA). After administration, the animals were not fed for an additional hour. The mice were then observed regularly for the first 24 h, with particular attention paid to the first 4 h, and then daily for a total of 14 days, with attention paid to the changes in respiratory rate, heart rate, skin and fur, eyes and mucous membranes, behavioural patterns, and especially to the acute CNS toxicity symptoms (tremors, twitching, salivation, diarrhoea, lethargy, sleep, coma). At the end of the 14-day observation period, all experimental animals were euthanized with CO2 and cervical dislocation.

[2] = test system: ICR mice icv-injected with Aβ1–42; experiment: Morris water maze, mice model with icv-injection of Aβ1–42; format: in vivo; settings: 1–5 mg/kg, ip, once a day; comparable to rivastigmine 4 (1 mg/kg, ip)
Protocol: Mice model with icv-injection of Aβ1–42 The experiments were performed using ICR male mice (8–10 weeks old, weight 18–20 g), which were purchased from Shanghai Bikai Animal Breeding Factory (Shanghai, China). Animals were housed in cages (6 mice per cage) at a constant temperature of 25±2 °C, humidity of 55%±10% and a light/dark (12:12) cycle. The mice had unlimited access to food and water prior to the experiment. Specified conditions for the maintenance of mice were ensured throughout the experiments, including tree bedding (Yizheng Anlimao Biotechnology Co., Ltd., China) and lab feed (Zimao, China). For behavioural tests, mice were selected randomly, each group consisted of 6 mice. The experiments were performed between 9 am and 3 pm.
According to the literature procedure, recombinant human hexafluoroisopropanol-pretreated Aβ1–42 from Merck Millipore (Darmstadt, Germany) was dissolved in 1% DMSO, diluted with saline to the final concentration of 2 mg/mL, and incubated for 72 h to form oligomers. […]
Behavioural assays The Morris water maze was placed in a lighted room at 25 °C, and it was divided into four equal quadrants. […] The time spent searching for the missing platform was recorded by Xeye Aba image processing system (Beijing Zhongshi Dichuang Technology Development Co., Ltd.) and analysed by GraphPad Prism 5.

CCN(CC)C(=O)n1cnc(C2(CC)Cc3ccccc3C2)c1 [Compound 8, N,N-Diethyl-4-(2-ethylindan-2-yl)-1H-imidazole-1-carboxamide]
caspase-3 activity after Aβ1–42 treatment [1]: significant reduction | effects in preliminary safety testing (BALB/c mice; 1 mg/kg p.o., mice): no effects were observed | survival (BALB/c mice; 10 mg/kg p.o., 14-day observation): All animals survived | acute cholinergic side effects (salivation, tremors) (BALB/c mice; 10 mg/kg p.o., mice): No acute cholinergic side effects | effects in preliminary safety testing (BALB/c mice; 10 mg/kg p.o., mice): some adrenergic symptoms | onset of symptoms after administration (BALB/c mice; 10 mg/kg p.o., mice): 15 to 30 min | time after which all effects subsided (BALB/c mice; 10 mg/kg p.o., mice): 4 to 5 h | performance in Morris water maze [2]: outperformed saline-treated mice (model)
